Data set [1] concerns the target T1, NET (Rattus norvegicus, UniProt Q63380).
T1 construct: from tissue; host or cells: rat lumbar spinal cord after oral dosing
Kind of data set: Ex vivo NET occupancy in rat spinal cord with PK/PD modeling. Particulars: estimate (% CV). The procedure:
TD-9855 Rat Administration and Sampling — Rats (n = 6/timepoint/dose level) received a single oral dose of TD-9855 (0.3, 1, 5, 10, 30, and 60mg/kg) and were euthanized by decapitation at specified time points (0.5, 2, 4, 6, and 8hr for 5mg/kg dose level; 2hr for 0.3, 1, 10, 30, and 60mg/kg dose levels) post-administration. Spinal cords were dissected for ex vivo transporter occupancy and PK assessments from the same animals. The spinal cord was harvested by hydraulic extrusion using phosphate-buffered saline, and the lumbar segment dissected and frozen on dry ice. The remaining spinal cord segments were collected and homogenized in water (25% w/w) for PK analysis. All samples were stored at -80 °C until analysis.
A kinetic radioligand binding assay was used to determine NET and SERT occupancy in rat spinal cord, as described previously ([Bourdet et al., 2012]).
Rat PK/PD Modeling — PK/PD parameters were estimated by a compartmental modeling approach (WinNonlin Version 5.0.1, Pharsight Corporation). One- and two-compartment PK models with first-order absorption and elimination were evaluated. The one-compartment model was selected. The pharmacodynamic model was an effect compartment Emax model linked directly to the central PK compartment (WinNonlin PK Model 3, PD Model 101). Selection of models was based upon best fit in terms of visual inspection, Akaike Information Criteria, and weighted residual sum of squares using the Gauss-Newton minimization method. The following parameters were estimated:
Emax (% occupancy): Maximal SERT or NET occupancy in spinal cord
keo (hr^-1): First-order equilibration rate constant between the central pharmacokinetic compartment and the pharmacodynamic effect compartment

The target of data set [2] is NET (Homo sapiens, UniProt P23975). Kind of data set: Transporter binding kinetics in vitro at human NET.
The target of the next data set is T2, rat native SERT (Rattus norvegicus, UniProt P31652).
T2 construct: at human recombinant and rat native monoamine transporters; from tissue
In words: [3H]-citalopram binding, rat cortical membranes. The note with it: mean (95% CI), 3 to 9 experiments, read-out: Transporter Binding: pKi SERT (converted). The text has this: (§1) The in vitro pharmacology of TD-9855 (4-[2-(2, 4, 6-trifluorophenoxymethyl)phenyl]piperidine; Figure 1) at human recombinant and rat native monoamine transporters was characterized as described previously ([Tsuruda et al., 2010]; [Shen et al., 2013]). Radioligands were sourced commercially (Perkin Elmer Life Sciences or GE Healthcare Life Sciences). Briefly, membranes prepared from HEK293 (Human Embryonic Kidney 293) cells stably-transfected with human recombinant SERT (HEK293-hSERT), NET (HEK293-hNET), or DAT ([…]) were incubated for 1hr at 22°C in the absence, or presence, of TD-9855 and [^3H]-citalopram (1.0nM) for SERT, [^3H]-nisoxetine (2.0nM) for NET, and [^3H]-WIN35428 (3.0nM) for DAT in 50mM Tris-HCl, 120mM NaCl, 5mM KCl, 0.025% BSA, 100 μM ascorbic acid, pH 7.4. Rat cortical membrane preparations were incubated with [^3H]-citalopram (2.0nM) for SERT or [^3H]-nisoxetine (4.0nM) for NET for 1hr at 22°C. […] Binding and uptake assays were terminated by rapid filtration and radioactivity, determined by liquid scintillation spectroscopy.

Data set [3] deals with rat native NET (Rattus norvegicus, UniProt Q63380). Kind of data set: [3H]-NE uptake inhibition in rat cortical synaptosomes. Particulars: Rat; mean (95% CI), 3 to 9 experiments. It counts as biochemical.
Source text: as §1

Data set [4] has as its system rat native NET. Described as above. It counts as biochemical. Particulars: rat cortical synaptosomes, uptake.
Source text: as §1

A further data set addresses SERT (Homo sapiens, UniProt P31645). In words: [3H]-citalopram equilibrium binding, HEK293-hSERT membranes. Particulars: mean (95% CI), 3 to 9 experiments, read-out: Transporter Binding: pKi SERT (converted). Also on record: expressed in transfected cells; host or cells: HEK293 (HEK293-hSERT), stably transfected.
Source text: as §1

On the set-up of data set [5]: method as in Theravance Biopharma US, Inc., data on file. The note with it: rat; ref Theravance Biopharma US, Inc., data on file; cited from earlier work.

The structures appear in SMILES notation.

Results on one molecule are retold here after paper PMC4368888, “Preclinical to Clinical Translation of CNS Transporter Occupancy of TD-9855, a Novel Norepinephrine and Serotonin Reuptake Inhibitor” (International Journal of Neuropsychopharmacology, 2015).

T1 sequence (Q63380 1-617): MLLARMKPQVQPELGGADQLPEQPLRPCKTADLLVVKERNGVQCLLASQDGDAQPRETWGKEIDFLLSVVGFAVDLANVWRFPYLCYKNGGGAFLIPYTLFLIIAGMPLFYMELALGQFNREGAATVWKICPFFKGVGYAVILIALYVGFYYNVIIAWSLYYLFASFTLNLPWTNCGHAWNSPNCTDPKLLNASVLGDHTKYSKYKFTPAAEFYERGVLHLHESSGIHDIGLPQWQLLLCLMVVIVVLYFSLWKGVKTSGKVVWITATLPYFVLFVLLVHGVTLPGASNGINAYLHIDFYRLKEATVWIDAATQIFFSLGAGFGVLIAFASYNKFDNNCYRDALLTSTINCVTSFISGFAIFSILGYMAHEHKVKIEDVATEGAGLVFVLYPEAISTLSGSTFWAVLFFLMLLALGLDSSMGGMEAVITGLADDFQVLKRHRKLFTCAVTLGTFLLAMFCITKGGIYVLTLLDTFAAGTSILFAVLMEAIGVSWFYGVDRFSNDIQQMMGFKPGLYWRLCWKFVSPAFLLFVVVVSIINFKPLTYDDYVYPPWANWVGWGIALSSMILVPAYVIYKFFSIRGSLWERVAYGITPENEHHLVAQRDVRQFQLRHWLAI
Chain of NET (Homo sapiens, UniProt P23975) (P23975 whole entry): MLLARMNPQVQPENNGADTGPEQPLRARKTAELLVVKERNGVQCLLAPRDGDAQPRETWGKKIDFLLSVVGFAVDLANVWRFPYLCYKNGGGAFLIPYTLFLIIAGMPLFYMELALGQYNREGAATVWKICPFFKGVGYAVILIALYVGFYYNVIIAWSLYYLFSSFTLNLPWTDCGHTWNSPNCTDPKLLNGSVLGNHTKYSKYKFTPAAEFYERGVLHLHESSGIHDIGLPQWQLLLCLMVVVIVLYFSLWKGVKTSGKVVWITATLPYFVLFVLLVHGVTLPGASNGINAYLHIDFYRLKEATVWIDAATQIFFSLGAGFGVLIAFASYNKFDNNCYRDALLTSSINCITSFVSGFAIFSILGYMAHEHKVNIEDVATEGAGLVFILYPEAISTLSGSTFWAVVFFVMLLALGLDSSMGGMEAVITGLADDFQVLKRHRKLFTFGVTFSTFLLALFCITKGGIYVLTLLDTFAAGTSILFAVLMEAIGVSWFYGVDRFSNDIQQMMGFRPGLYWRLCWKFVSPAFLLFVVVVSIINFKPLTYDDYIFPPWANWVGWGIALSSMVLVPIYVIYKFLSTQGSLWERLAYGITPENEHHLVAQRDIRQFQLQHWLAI
Chain of SERT (P31645 whole entry): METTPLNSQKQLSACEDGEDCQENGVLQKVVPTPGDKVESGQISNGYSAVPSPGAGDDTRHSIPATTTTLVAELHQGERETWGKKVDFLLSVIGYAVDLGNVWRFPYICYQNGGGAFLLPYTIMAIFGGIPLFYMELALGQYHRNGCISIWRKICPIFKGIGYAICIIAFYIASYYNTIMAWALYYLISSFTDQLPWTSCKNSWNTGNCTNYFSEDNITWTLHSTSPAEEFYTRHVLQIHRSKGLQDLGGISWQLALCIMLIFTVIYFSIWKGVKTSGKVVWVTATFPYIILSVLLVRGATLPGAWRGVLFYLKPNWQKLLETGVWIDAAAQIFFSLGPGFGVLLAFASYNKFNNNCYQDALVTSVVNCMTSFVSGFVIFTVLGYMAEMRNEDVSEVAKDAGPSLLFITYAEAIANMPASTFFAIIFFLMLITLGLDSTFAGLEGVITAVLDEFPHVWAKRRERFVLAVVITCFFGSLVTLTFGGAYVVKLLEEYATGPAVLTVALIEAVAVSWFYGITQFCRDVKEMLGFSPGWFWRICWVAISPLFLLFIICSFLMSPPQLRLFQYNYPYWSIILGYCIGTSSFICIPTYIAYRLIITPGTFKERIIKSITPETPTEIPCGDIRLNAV
Chain of rat native NET (Rattus norvegicus, UniProt Q63380) (Q63380 1-617): as the sequence (Q63380 1-617) above
T2 sequence (P31652 whole entry): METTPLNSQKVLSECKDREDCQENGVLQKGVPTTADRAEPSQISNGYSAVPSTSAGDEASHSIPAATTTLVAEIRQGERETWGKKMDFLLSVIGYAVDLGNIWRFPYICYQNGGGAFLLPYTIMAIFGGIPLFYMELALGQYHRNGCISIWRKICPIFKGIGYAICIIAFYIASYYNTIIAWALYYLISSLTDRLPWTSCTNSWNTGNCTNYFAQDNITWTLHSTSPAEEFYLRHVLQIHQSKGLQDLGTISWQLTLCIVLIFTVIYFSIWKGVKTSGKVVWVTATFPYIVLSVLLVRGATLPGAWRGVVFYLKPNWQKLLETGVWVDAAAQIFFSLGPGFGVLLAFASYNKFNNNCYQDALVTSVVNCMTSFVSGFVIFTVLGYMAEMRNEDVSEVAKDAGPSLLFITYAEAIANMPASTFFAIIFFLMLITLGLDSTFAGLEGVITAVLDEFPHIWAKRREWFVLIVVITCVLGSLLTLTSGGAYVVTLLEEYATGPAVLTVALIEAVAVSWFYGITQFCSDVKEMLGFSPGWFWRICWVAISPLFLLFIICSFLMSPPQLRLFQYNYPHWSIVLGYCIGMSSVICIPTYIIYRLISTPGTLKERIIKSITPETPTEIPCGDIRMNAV

With `Fc1cc(F)c(OCc2ccccc2C2CCNCC2)c(F)c1` [TD-9855, 4-[2-(2,4,6-trifluorophenoxymethyl)phenyl]piperidine], the “Emax (% Occupancy), NET” value at NET [1] (rat spinal cord, oral 0.3-60mg/kg) was 92.0 (19) % Occupancy. The EC50 at NET [1] (rat spinal cord, plasma EC50) is 36.4 nM. Further, the “keo, NET” value on NET [1] (rat, equilibration rate constant plasma to effect compartment) is reported as 1.78 (57) hr^-1. Also, the kon on NET [2] (read-out: association rate constant at NET (converted)) was 917000 M⁻¹ s⁻¹. On NET [2] (read-out: dissociation rate constant at NET (converted)), the koff was 0.00115 s⁻¹. For the same molecule, the Ki at rat native SERT and at SERT was 3.16 nM in each case. Moreover, at rat native NET [3], the “Neurotransmitter Uptake Inhibition: pIC50 NET” value is reported as 8.9 (8.6, 9.1). The “functional selectivity for NET over SERT” value in the data set on rat native NET [4] stood at 10 fold. Further, in data set [5], the plasma protein binding is given as 90.2%.
